In US20100063007A1, “PESTICIDE C[…]-[…] AND AN I[…] SUBSTANCE” (BAYER CROPSCIENCE AG, priority 2006, published 2010):

How the values were obtained:
Spodoptera frugiperda = assay: Efficacy Example B: Spodoptera frugiperda test (cabbage leaf dip, larval mortality); type: in vivo; conditions: mortality of larvae after 6 days
Experimental: Efficacy Example B: Spodoptera frugiperda Test
(§1) After a period of time of 6 days, the mortality is determined. 100% means that all the caterpillars have been killed; 0% means that none of the caterpillars have been killed.

Plutella xylostella = assay: Efficacy Example A: Plutella xylostella test (cabbage leaf dip, larval mortality); type: in vivo; conditions: mortality of larvae after 6 days
Experimental: Efficacy Example A: Plutella xylostella Test
as §1

SMILES: O=[N+]([O-])NC1=NCCN1Cc1ccc(Cl)nc1 [imidacloprid]
- Efficacy (%) (Spodoptera frugiperda; rate of application 4 ppm): 30%

SMILES: CN/C(=N\[N+](=O)[O-])NCc1cnc(Cl)s1 [clothianidin]
- Efficacy (%) (Plutella xylostella; rate of application 100 ppm): 80%

SMILES: N#C/N=C1\SCCN1Cc1ccc(Cl)nc1 [thiacloprid]
- Efficacy (%) (Plutella xylostella; rate of application 20 ppm): 5%

SMILES: CN1COCN(Cc2cnc(Cl)s2)/C1=N\[N+](=O)[O-] [thiamethoxam]
- Efficacy (%) (Spodoptera frugiperda; rate of application 20 ppm): 0%
